Source: patent US10759796B2, “CXCR4 inhibitors and uses thereof” (X4 Pharmaceuticals, Inc., priority 2016, dated 2020)
pIC50: −log10 of the molar value.

Assays:
[1] = in vitro; conditions: human, Caco-2, pH 7.4
In short: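 Compounds at 10 μM in HBSS pH 7.4 (0.1–0.3% DMSO) were dosed on Caco-2 monolayers, apical-to-basolateral and basolateral-to-apical, for 90 min at 37 °C, in duplicate. Monolayer integrity was checked by TEER and lucifer yellow flux, read by fluorescence at 485/535 nm. Compound was quantified by LC-MS/MS and Papp calculated.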

[2] = target: Jurkat cells expressing CXCR4 (Homo sapiens (Human), UniProt P61073); test: Chemokine (CXCL12-AF647) binding inhibition assay; conditions: CXCL12-AF647 25 ng/mL, read-out: IC50 CXCL-12 binding Jurkat
Jurkat cells expressing CXCR4, sequence (P61073 whole entry): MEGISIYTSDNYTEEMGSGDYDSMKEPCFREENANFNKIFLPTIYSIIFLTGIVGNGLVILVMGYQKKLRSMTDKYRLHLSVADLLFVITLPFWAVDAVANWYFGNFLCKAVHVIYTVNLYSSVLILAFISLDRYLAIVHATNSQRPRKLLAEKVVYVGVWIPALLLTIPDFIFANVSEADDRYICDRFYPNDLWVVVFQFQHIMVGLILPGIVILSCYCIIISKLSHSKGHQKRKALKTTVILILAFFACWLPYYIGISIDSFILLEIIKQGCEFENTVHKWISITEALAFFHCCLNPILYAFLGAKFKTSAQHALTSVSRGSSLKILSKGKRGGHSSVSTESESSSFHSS
In short: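 Cells in HBSS, 20 mM HEPES, 0.2% BSA, pH 7.4, preincubated 15 min at room temperature with compound, then 25 ng/mL CXCL12-AF647 for 30 min. After washing and paraformaldehyde fixation, bound ligand read by flow cytometry; percent inhibition calculated from MFI relative to unlabeled and ligand-only controls.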

[3] = target: CXCR-4 transfected U87 cell line (U87.CXCR4) (Homo sapiens (Human), UniProt P61073); test: Intracellular CXCL-12-induced calcium mobilization assay (FLIPR); format: cell-based; conditions: U87.CXCR4 cells, CXCL-12 25-50 ng/mL; read-out: IC50 CXCL-12 Ca2+ flux U87.CXCR4+
CXCR-4 transfected U87 cell line (U87.CXCR4), sequence (P61073 whole entry): as above
In short: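 U87.CXCR4 cells were seeded at 20,000 per well, cultured 12 hours, then loaded with 4 μM Fluo-2 AM for 45 min at 37° C. in HBSS with 20 mM HEPES and 0.2% BSA, pH 7.4. Calcium flux triggered by CXCL-12 (25-50 ng/mL) was tracked over time by FLIPR fluorescence at 37° C.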

SMILES	Papp A→B at 90 min, 10 μM [1]	Papp B→A at 90 min, 10 μM [1]	efflux ratio at 90 min, 10 μM [1]	pIC50 [2]	pIC50 [3]
CCN1CCN(c2cccc3nc([C@H]4CCC[C@@H](c5ncccc5C)N4C)c(Cl)n23)CC1 [Compound I-88]	0.1 to 10 ×10⁻⁶ cm/s	0.1 to 10 ×10⁻⁶ cm/s	0.1 to 10	7.00 to 11.00	7.00 to 11.00
Cc1cccnc1[C@@H]1CCC[C@H](c2nc3cccc(N4CCN5CCCC5C4)n3c2Cl)N1C (some centres unmarked) [Compound I-113]	0.1 to 10 ×10⁻⁶ cm/s	0.1 to 10 ×10⁻⁶ cm/s	0.1 to 10	7.00 to 11.00	7.00 to 11.00
COc1cccnc1[C@@H]1CCC[C@H](c2cn3c(N4CCNC5(CC5)C4)cccc3n2)N1 [Compound I-172]	0.1 to 10 ×10⁻⁶ cm/s	> 30 ×10⁻⁶ cm/s	> 30	≤ 6.00	≤ 6.00
Cc1cccnc1[C@H]1CCC[C@@H](c2nc3cccc(N4CCN(C)CC4)n3c2F)N1C (stereo in doubt) [Compound I-34]	10 to 30 ×10⁻⁶ cm/s	0.1 to 10 ×10⁻⁶ cm/s	0.1 to 10	7.00 to 11.00	7.00 to 11.00
Cc1cccnc1[C@@H]1CCC[C@H](c2nc3ccccn3c2CN2CCN(C(C)C)CC2)N1C [Compound I-39]	0.1 to 10 ×10⁻⁶ cm/s	> 30 ×10⁻⁶ cm/s	10 to 30	7.00 to 11.00	6.00 to 7.00
CCN1CCN(c2cccc3nc([C@H]4CCC[C@@H](c5ncccc5C)N4C)cn23)CC1 [Compound I-13]	0.1 to 10 ×10⁻⁶ cm/s	10 to 30 ×10⁻⁶ cm/s	0.1 to 10	7.00 to 11.00	7.00 to 11.00
CN1[C@@H](c2cn3c(N4CCNC5(CC5)C4)cccc3n2)CCC[C@H]1c1ncccc1Cl [Compound I-159]	10 to 30 ×10⁻⁶ cm/s	10 to 30 ×10⁻⁶ cm/s	0.1 to 10	7.00 to 11.00	7.00 to 11.00
CCN1CCN(c2cccc3nc([C@H]4CCC[C@@H](c5ncccc5C(C)C)N4C)c(CO)n23)CC1 [Compound I-75]	0.1 to 10 ×10⁻⁶ cm/s	10 to 30 ×10⁻⁶ cm/s	0.1 to 10	6.00 to 7.00	≤ 6.00
CCN1CCN(c2cccc3nc([C@H]4CCC[C@@H](c5ncccc5C)N4C)c(COC(C)C)n23)CC1 [Compound I-60]	0.1 to 10 ×10⁻⁶ cm/s	10 to 30 ×10⁻⁶ cm/s	0.1 to 10	7.00 to 11.00	7.00 to 11.00
CN1CCN(c2cccc3nc([C@H]4CCC[C@@H](c5ncccc5OC(F)(F)F)N4C)cn23)CC1 [Compound I-81]	10 to 30 ×10⁻⁶ cm/s	10 to 30 ×10⁻⁶ cm/s	0.1 to 10	7.00 to 11.00	6.00 to 7.00
Cc1cccnc1[C@@H]1CCC[C@H](c2cn3c(N4CCN(C(C)C)CC4)cccc3n2)N1C [Compound I-15]	0.1 to 10 ×10⁻⁶ cm/s	10 to 30 ×10⁻⁶ cm/s	0.1 to 10	7.00 to 11.00	7.00 to 11.00
CO[C@H](c1c([C@H]2CCC[C@@H](c3ncccc3C)N2C)nc2ccccn12)C1CCN(C)CC1 [Compound I-104]	0.1 to 10 ×10⁻⁶ cm/s	10 to 30 ×10⁻⁶ cm/s	> 30	7.00 to 11.00	6.00 to 7.00
CN1CCN(c2cccc3nc([C@H]4CCC[C@@H](c5ncccc5Cl)N4C)c(CO)n23)CC1 [Compound I-116]	0.1 to 10 ×10⁻⁶ cm/s	10 to 30 ×10⁻⁶ cm/s	0.1 to 10	7.00 to 11.00	7.00 to 11.00
CN1C2CCC1CN(c1cccc3nc([C@H]4CCC[C@@H](c5ncccc5Cl)N4C)c(CO)n13)C2 [Compound I-135]	0.1 to 10 ×10⁻⁶ cm/s	10 to 30 ×10⁻⁶ cm/s	0.1 to 10	7.00 to 11.00	7.00 to 11.00
Cc1cccnc1[C@@H]1CCC[C@H](c2nc3ccccn3c2[C@@H](O)C2CCN(C)CC2)N1C [Compound I-54]	0.1 to 10 ×10⁻⁶ cm/s	0.1 to 10 ×10⁻⁶ cm/s	> 30	7.00 to 11.00	7.00 to 11.00
Cc1cccnc1[C@@H]1CCC[C@H](c2nc3cccc(N4C5CCC4CN(C)C5)n3c2Cl)N1C [Compound I-138]	10 to 30 ×10⁻⁶ cm/s	10 to 30 ×10⁻⁶ cm/s	0.1 to 10	7.00 to 11.00	7.00 to 11.00
Cc1cccnc1[C@@H]1CCC[C@H](c2nc3ccccn3c2-c2cccnc2)N1 [Compound I-208]	10 to 30 ×10⁻⁶ cm/s	10 to 30 ×10⁻⁶ cm/s	0.1 to 10	≤ 6.00	≤ 6.00

SMILES	Papp A→B at 90 min, 10 μM [1]	Papp B→A at 90 min, 10 μM [1]	efflux ratio at 90 min, 10 μM [1]	pIC50 [2]	pIC50 [3]
Cc1cccnc1[C@@H]1CCC[C@H](c2cn3c(N4CCN5CCCC5C4)cccc3n2)N1C (some centres unmarked) [Compound I-77]	10 to 30 ×10⁻⁶ cm/s	> 30 ×10⁻⁶ cm/s	0.1 to 10	7.00 to 11.00	7.00 to 11.00
Cc1cccnc1[C@H]1CCC[C@@H](c2nc3ccccn3c2-c2ccncc2)N1 [Compound I-207]	10 to 30 ×10⁻⁶ cm/s	> 30 ×10⁻⁶ cm/s	0.1 to 10	≤ 6.00	≤ 6.00
CN1CCN(c2cccc3nc([C@H]4CCC[C@@H](c5ncccc5Cl)N4)c(Cl)n23)CC1 [Compound I-147]	10 to 30 ×10⁻⁶ cm/s	10 to 30 ×10⁻⁶ cm/s	0.1 to 10	7.00 to 11.00	6.00 to 7.00
Cc1cccnc1[C@@H]1CCC[C@H](c2nc3ccccn3c2[C@H](O)C2CCN(C)CC2)N1C [Compound I-55]	0.1 to 10 ×10⁻⁶ cm/s	0.1 to 10 ×10⁻⁶ cm/s	0.1 to 10	7.00 to 11.00	≤ 6.00
CN1CCN(c2cccc3nc([C@H]4CCC[C@@H](c5ncccc5Cl)N4)cn23)CC12CC2 [Compound I-160]	10 to 30 ×10⁻⁶ cm/s	10 to 30 ×10⁻⁶ cm/s	0.1 to 10	6.00 to 7.00	≤ 6.00
Cc1cccnc1[C@@H]1CCC[C@H](c2nc3cccc(N4CCN(C5CC5)CC4)n3c2Cl)N1C [Compound I-93]	10 to 30 ×10⁻⁶ cm/s	0.1 to 10 ×10⁻⁶ cm/s	0.1 to 10	7.00 to 11.00	6.00 to 7.00
Cc1cccnc1[C@@H]1CCC[C@H](c2nc3ccccn3c2CCCN2CCOCC2)N1C [Compound I-29]	0.1 to 10 ×10⁻⁶ cm/s	10 to 30 ×10⁻⁶ cm/s	0.1 to 10	7.00 to 11.00	6.00 to 7.00
CN1C2CCC1CN(c1cccc3nc([C@H]4CCC[C@@H](c5ncccc5Cl)N4)cn13)C2 [Compound I-181]	0.1 to 10 ×10⁻⁶ cm/s	10 to 30 ×10⁻⁶ cm/s	0.1 to 10	7.00 to 11.00	7.00 to 11.00
Cc1cccnc1[C@@H]1CCC[C@H](c2nc3ccccn3c2N2CCN(C)CC2)N1C [Compound I-152]	0.1 to 10 ×10⁻⁶ cm/s	10 to 30 ×10⁻⁶ cm/s	0.1 to 10	7.00 to 11.00	7.00 to 11.00
Cc1cccnc1[C@@H]1CCC[C@H](c2cn3c(N4CCNC5(CC5)C4)cccc3n2)N1C [Compound I-156]	0.1 to 10 ×10⁻⁶ cm/s	10 to 30 ×10⁻⁶ cm/s	0.1 to 10	7.00 to 11.00	7.00 to 11.00
Cc1cccnc1[C@@H]1CCC[C@H](c2nc3cccc(N4CCN(C)CC4)n3c2COC(C)C)N1C [Compound I-48]	0.1 to 10 ×10⁻⁶ cm/s	10 to 30 ×10⁻⁶ cm/s	0.1 to 10	7.00 to 11.00	6.00 to 7.00
Cc1cccnc1[C@@H]1CCC[C@H](c2cn3c(N4CCC(N(C)C)CC4)cccc3n2)N1C [Compound I-78]	0.1 to 10 ×10⁻⁶ cm/s	10 to 30 ×10⁻⁶ cm/s	> 30	7.00 to 11.00	7.00 to 11.00
CCN1CCN(Cc2c([C@H]3CCC[C@@H](c4ncccc4C)N3C)nc3ccccn23)CC1 [Compound I-40]	0.1 to 10 ×10⁻⁶ cm/s	> 30 ×10⁻⁶ cm/s	> 30	7.00 to 11.00	7.00 to 11.00
Cc1cccnc1[C@@H]1CCC[C@H](c2cn3c(N4C5CCC4CN(C)C5)cccc3n2)N1 [Compound I-186]	0.1 to 10 ×10⁻⁶ cm/s	10 to 30 ×10⁻⁶ cm/s	0.1 to 10	7.00 to 11.00	7.00 to 11.00
CN1CCN(c2cccc3nc([C@H]4CCC[C@@H](c5ncccc5C5CC5)N4C)cn23)CC1 [Compound I-79]	0.1 to 10 ×10⁻⁶ cm/s	10 to 30 ×10⁻⁶ cm/s	0.1 to 10	7.00 to 11.00	7.00 to 11.00
CNCCCc1c([C@@H]2CCC[C@H](c3ncccc3C)N2C)nc2ccccn12 (stereo in doubt) [Compound I-27]	0.1 to 10 ×10⁻⁶ cm/s	0.1 to 10 ×10⁻⁶ cm/s	10 to 30	7.00 to 11.00	7.00 to 11.00
CCOCc1c([C@H]2CCC[C@@H](c3ncccc3C)N2C)nc2cccc(N3CCN(CC)CC3)n12 [Compound I-56]	0.1 to 10 ×10⁻⁶ cm/s	10 to 30 ×10⁻⁶ cm/s	0.1 to 10	7.00 to 11.00	7.00 to 11.00
